One experiment concerns A549 cells. Briefly: Anti-tumor (cytotoxic) activity assay, SRB method, A549. It is filed as cell-based. As to conditions: Homo sapiens, 72 h at 37° C., read-out: growth inhibition activity on A549 cells, IC50. The protocol:
(§1) All the cytotoxic activity assays of the compounds were conducted on corresponding tumor cell lines. There were 6000˜10000 tumor cells per 100 μL of culture medium, and they were placed in a 96-well plate (Falcon, Calif.). The tumor cells were divided into 3 parts, and treated with drugs having gradient concentrations. The tumor cells were cultivated for 72 h at 37° C., and assayed using SRB method. The concentration that 50% of the growth of the tumor cells growth was inhibited, i.e., IC50, was calculated from dosage-activity curves.
For orientation: Sulforhodamine B stains cellular protein and so reports cell mass.

The next experiment concerns HCT-116 cells. Briefly: Anti-tumor (cytotoxic) activity assay, SRB method, HCT-116. In kind it is cell-based. The following applies: Homo sapiens, HCT-116 tumor cells, 72 h at 37° C., read-out: growth inhibition activity on HCT-116 cells, IC50. The method, then:
as §1

For orientation: IC50 means the concentration that gives 50% inhibition. As for `CC[C@]1(O)c2cc3n(c(=O)c2COC(=O)[C@@H]1OC(C)=O)Cc1cc2cc4c(cc2nc1-3)OCO4` [Ysb-5], the IC50 in the experiment with A549 cells is 0.0012 ± 0.0007 µM; with HCT-116 cells, 0.0021 ± 0.0003 µM.
Take `CCc1c2c(nc3ccc(O)cc13)-c1cc3c(c(=O)n1C2)COC(=O)[C@H](O)[C@]3(O)CC` [Ysb-10, (20S,20aR)-10-hydroxyl-7-ethyl-20a-hydroxyl homocamptothecin]: the IC50 came out at 0.0303 ± 0.0184 µM with A549 cells and 0.366 ± 0.213 µM with HCT-116 cells.
With `CC[C@]1(O)c2cc3n(c(=O)c2COC(=O)[C@@H]1OC(C)=O)Cc1cc2cc(OC)ccc2nc1-3` [Ysb-3, (20S,20aR)-10-methoxy-20a-acetoxyhomocamptothecin], the results for the IC50 in the experiment with A549 cells and in the experiment with HCT-116 cells were 0.0047 ± 0.0011 µM and 0.0044 ± 0.001 µM, respectively.
On to `CC[C@@]1(O)C(=O)OCc2c1cc1n(c2=O)Cc2cc3ccccc3nc2-1` [CPT, Camptothecin], for which the IC50 in the experiment on A549 cells amounted to 0.0338 ± 0.0139 µM; with HCT-116 cells, 0.0229 ± 0.012 µM.
Consider `CCc1c2c(nc3ccc(O)cc13)-c1cc3c(c(=O)n1C2)COC(=O)[C@H](OC(C)=O)[C@]3(O)CC` [Ysb-9, (20S,20aR)-10-hydroxyl-7-ethyl-20a-acetoxy homocamptothecin], for which the IC50 in the experiment on A549 cells was 0.226 ± 0.0158 µM; with HCT-116 cells it was 0.133 ± 0.0187 µM.
For the molecule `CC[C@]1(O)c2cc3n(c(=O)c2COC(=O)[C@@H]1O)Cc1cc2cc4c(cc2nc1-3)OCCO4` [Ysb-8], the IC50 was found to be 0.0029 ± 0.0013 µM in the experiment on A549 cells and 0.0034 ± 0.0012 µM with HCT-116 cells.
As to `CCc1c2c(nc3ccc(O)cc13)-c1cc3c(c(=O)n1C2)COC(=O)[C@]3(O)CC` [SN-38, reference compound], the IC50 stood at 0.0304 ± 0.0115 µM in the experiment on A549 cells and 0.0408 ± 0.0058 µM in the experiment on HCT-116 cells.
`CC[C@]1(O)c2cc3n(c(=O)c2COC(=O)[C@@H]1O)Cc1cc2cc(OC)ccc2nc1-3` [Ysb-4, (20S,20aR)-10-methoxy-20a-hydroxylhomocamptothecin]: the IC50 was 0.0048 ± 0.0036 µM in the experiment on A549 cells and 0.0106 ± 0.0062 µM in the experiment on HCT-116 cells.
With `CC[C@]1(O)c2cc3n(c(=O)c2COC(=O)[C@@H]1OC(C)=O)Cc1cc2cc4c(cc2nc1-3)OCCO4` [Ysb-7], the IC50 in the experiment with A549 cells was 0.0046 ± 0.0029 µM; in the experiment on HCT-116 cells it was 0.0049 ± 0.0041 µM.
Take `CC[C@]1(O)c2cc3n(c(=O)c2COC(=O)[C@@H]1O)Cc1cc2cc4c(cc2nc1-3)OCO4` [Ysb-6, (20S,20aR)-9,10-(1,3-dioxolane)-20a-hydroxylhomocamptothecin]: the IC50 with A549 cells was determined as 0.0031 ± 0.0016 µM; with HCT-116 cells, 0.0031 ± 0.0007 µM.
As for `CC[C@]1(O)c2cc3n(c(=O)c2COC(=O)[C@@H]1O)Cc1cc2ccccc2nc1-3` [Ysb-2, (20S,20aR)-20a-hydroxylhomocamptothecin], the results for the IC50 in the experiment on A549 cells and in the experiment on HCT-116 cells were 0.0168 ± 0.0042 µM and 0.0493 ± 0.015 µM, respectively.
As for `CC[C@@]1(O)C(=O)OCc2c1cc1n(c2=O)Cc2cc3cc(O)ccc3nc2-1` [Compound 10-HCPT, 10-hydroxylcamptothecin, reference compound], the IC50 in the experiment with A549 cells turned out to be 0.0336 ± 0.0178 µM; in the experiment with HCT-116 cells, 0.0312 ± 0.0082 µM.
Regarding `CC[C@]1(O)c2cc3n(c(=O)c2COC(=O)[C@@H]1OC(C)=O)Cc1cc2ccccc2nc1-3` [Ysb-1, (20S,20aR)-20a-acetoxyhomocamptothecin], the IC50 with A549 cells came out at 0.0492 ± 0.0346 µM; with HCT-116 cells, 0.0142 ± 0.0061 µM.

Values taken from US9115150B2, “Camptothecin compound containing stable 7-membered lactone ring, preparation method and use” (EAST CHINA NORMAL UNIVERSITY, priority 2012, dated 2015).
